The text below walks through data of patent US5883076A, “Systemin” (Washington State University Research Foundation, Inc., priority 1994, dated 1999).

Where no end group is shown, it is not given here.

Series [1] concerns proteinase Inhibitor I and II. As to the kind of experiment: Proteinase inhibitor inducing activity supplied through cut stems/petioles of young tomato plants, radial immunodiffusion of leaf juice. The format is in vivo, tomato (Lycopersicon esculentum). The protocol: A search was initiated for systemic signals inducing proteinase Inhibitor I and II genes in tomato leaf extracts. […] The polypeptide was purified using high-performance liquid chromatography (HPLC, see Materials and Methods, below). Inducing activity of the polypeptide was assayed by cutting the petioles of young plants and introducing eluted fractions from column separations into the cut over a period of 30 min. The plants were subsequently transferred to small vials of water, incubated under constant light for 24 hours as described (C. A. Ryan, Plant Physiol. 54, 328, 1974), and the amount of proteinase Inhibitor I and II in the leaf juice was quantified by radial immunodiffusion in agar gels that contained rabbit antiserum to Inhibitor I or Inhibitor II (C. A. Ryan, Anal. Biochem. 19, 434, 1967; R. Trautman, K. Cowan, G. Wagner, Immunochemistry 8, 901, 1971). Over 30,000 young tomato plants were assayed over a 2.5 year period.
The leaves were incubated in solutions containing the synthetic systemin polypeptide and the proteinase inhibitors were assayed as described above in Example 1. Each data point was obtained from assays of the leaves of 36 tomato plants.

The nature of series [2]: Loss of inducing activity of purified systemin after acid hydrolysis or proteolytic enzymes. The format is physicochemical.
For series [3] the following is noted: in vivo; cited from earlier work.
For series [4] the following is noted: in vivo.
[5] abbreviates: supplied to cut stems of young tomato plants.

For the compound `CSCC[C@H](NC(=O)[C@H](CCCCN)NC(=O)[C@@H]1CCCN1C(=O)[C@@H]1CCCN1C(=O)[C@H](CC(=O)O)NC(=O)[C@H](CCCNC(=N)N)NC(=O)[C@H](CCCCN)NC(=O)[C@H](CO)NC(=O)[C@@H]1CCCN1C(=O)[C@@H]1CCCN1C(=O)[C@H](CCCCN)NC(=O)[C@H](CO)NC(=O)[C@H](CCC(N)=O)NC(=O)[C@@H](NC(=O)[C@H](C)N)C(C)C)C(=O)N[C@@H](CCC(N)=O)C(=O)N[C@H](C(=O)N[C@@H](CC(=O)O)C(=O)O)[C@@H](C)O` [systemin, NH3 -AVQSKPPSKRDPPKMQTD-COO-], in series [1] (step 6 sample, approximately 1 μg of protein), the “number of tomato plants in which the sample could induce maximal accumulation of proteinase inhibitors” value is 40,000 tomato plants. Moreover, in series [2], the “activity after acid hydrolysis” value is given as “total loss of activity”; the “activity in the presence of trypsin and other proteolytic enzymes” value was “partial loss of activity”.
Regarding α-1, 4-oligogalacturonides, the “mobility from wound sites” value in series [3] is given as “not found to be mobile”.
“^14 C-labeled polypeptide: synthetic systemin with [14C] Ala added to residues 2 through 18 (AVQSKPPSKRDPPKMQTD; also: 14C label, positions not clearly stated; UniProt P27058 179-196, looked up)”: in series [4], the “time for radioactivity to move throughout the leaf” value was at most 30 min and the “time to identification of radiolabeled systemin in phloem exudate by HPLC” value was 1 to 2 h.
Consider “NH3 -AVQSKPPSKRDPPKMQTD-COO- [synthetic systemin polypeptide]”, for which the “activity on a molar basis relative to previously reported PIIF oligogalactunonide inducers” value in series [1] (in vivo) is recorded as “about 10^5 times”. In series [1] (setting [5]), the “amount of polypeptide required to produce half maximal accumulation of Inhibitors I and II” value is “About 40 fmol per plant”; the “bioactivity for inducing synthesis and accumulation of Inhibitor I and II compared with native systemin” value is “as effective as the native systemin polypeptide”.
